From PMC4335020, “Single Oral Dose Pharmacokinetics of Decursin and Decursinol Angelate in Healthy Adult Men and Women” (PLoS ONE, 2015)
Read-outs that look alike come from different tables or passages of the source.

Assay: Single oral dose human plasma pharmacokinetics of D, DA and DOH after Cogni.Q
Format: in vivo
Settings: for AUC(0-t) / Cmax / half-life / Tmax: human, plasma
Description: Ten healthy male and 10 female subjects were recruited by public announcement in Amarillo, TX, from January 2013 to April 2013 (see Fig. 1 CONSORT diagram). The sample size for each gender was chosen without power calculation due to the lack of prior knowledge of PK parameter variance in humans. After receiving informed consent verbally and in writing, the health status of each candidate was confirmed by health questionnaire, plasma biochemistry (hepatic and renal functions), complete blood cell count (CBC), and a physical examination by a participating academic physician. Subjects with diabetes, or pregnant, perinatal and breastfeeding women were excluded. For the 48 hours preceding study visit until the final blood draw, all subjects were instructed to avoid taking any prescription or nonprescription drugs, vitamins, and herbal/dietary supplements. Each subject was compensated for participating in the study per TTUHSC IRB approved rate.
Eligible subjects arrived at our clinical facility at 0700 (7:00 am) on the test day after a fast beginning at 2200 (10:00 pm) the previous night. After a brief review of vital signs, the nurse placed an intravenous (IV) line with saline drip in one arm of each subject. A baseline pre-dose (hour 0) blood sample was drawn through the IV line; after that subjects swallowed four Cogni.Q vegicaps with 240 mL of water at hour 0 under direct supervision. Subjects stayed at the clinical facility in their room for the next 12 hours, returning at 24 and 48 hours. Blood was drawn at baseline (hour 0) and at 0.5, 1, 2, 3, 4, 6, 8, 12, 24 and 48 hours after dosing into Vacutainer Blood Collection Tube (Becton-Dickinson, Franklin Lakes, NJ. Product Number: 367874, Sodium heparin was used as anti-coagulant). Water was allowed as desired except for within the first hour after Cogni.Q consumption. All subjects received standardized meals at post-dose hours 4.5 and 9.5 but no food was allowed for at least the first 4 hours post-dose.
Plasma was prepared by centrifuging the heparinized blood at 1000 g for 15 minutes at room temperature. Urine samples (40mL) were collected within time spans of 0–4, 4–8, 8–12 and 12–24 hours (total volume of urine was recorded). All plasma and urine samples were put on dry ice immediately and then stored at -80°C freezer until analysis.
Plasma samples were extracted with a validated solid supported liquid extraction (SLE) method facilitated with a positive pressure manifold (Biotage, Charlotte, NC). Briefly, 100 μL of plasma sample was spiked with 5 μL of 10 ng/μL prednisolone (IS), diluted with 200 μL of LC-MS grade water, mixed and loaded onto ISOLUTE SLE+ 400 μL Array Well cartridges (Biotage, Charlotte, NC). A pulse of minimum positive pressure was applied to facilitate the samples absorption into the cartridges. After the samples were allowed to absorb for 5 min, the compounds were eluted with 2×500 μL tert-butyl methyl ether. The eluent was dried in a Speedvac and the resulting residue was reconstituted in 50 μL of methanol for UHPLC-MS/MS analysis.
Eight-point calibration curves were constructed for D, DA and DOH, at concentrations of 0.1, 0.5, 1, 5, 10, 20, 50 and 100 μg/L for D and DA, and at concentrations of 1, 5, 10, 50, 100, 200, 500 and 1000 μg/L for DOH, respectively. The linear range was 0.1–100 μg/L (0.3–300 nmol/L), 0.1–100 μg/L (0.3–300 nmol/L) and 1–1000 μg/L (4–4000 nmol/L) for D, DA and DOH, respectively. The inter- and intra-assay CV were lower than 6.5% and the accuracy was between 90–105%. Calibration curve was run for each batch of samples analyzed. The mean calibration curve correlation coefficient (r) for D, DA and DOH was 0.999, 0.999 and 0.998, respectively (data from 7–10 calibration curves). In addition, 70% of the plasma samples were extracted and analyzed twice, the data from two replicate analyses were nearly identical and combined for final data analyses and presentation. […]

CC(C)=CC(=O)O[C@H]1Cc2cc3ccc(=O)oc3cc2OC1(C)C [D, decursin]
AUC(0-t) (oral, 4 Cogni.Q vegicaps, subject S10 (185 lb), read-out: AUC0-48h): 46.6 nmol·h/L
Cmax (oral, 4 Cogni.Q vegicaps, subject S10 (185 lb), read-out: Cmax): 5.7 nM
half-life (oral, 4 Cogni.Q vegicaps, subject S10 (185 lb), read-out: Terminal t1/2, h (converted)): 13.4 h
Tmax (oral, 4 Cogni.Q vegicaps, subject S10 (185 lb), read-out: Tmax): 0.5 h
AUC(0-t) (oral, 4 Cogni.Q vegicaps, subject S11 (178 lb), read-out: AUC0-48h): 14.7 nmol·h/L
Cmax (oral, 4 Cogni.Q vegicaps, subject S11 (178 lb), read-out: Cmax): 2.5 nM
half-life (oral, 4 Cogni.Q vegicaps, subject S11 (178 lb), read-out: Terminal t1/2, h (converted)): 20.2 h
Tmax (oral, 4 Cogni.Q vegicaps, subject S11 (178 lb), read-out: Tmax): 1 h
AUC(0-t) (oral, 4 Cogni.Q vegicaps, subject S12 (169 lb), read-out: AUC0-48h): 24.8 nmol·h/L
Cmax (oral, 4 Cogni.Q vegicaps, subject S12 (169 lb), read-out: Cmax): 1.3 nM
half-life (oral, 4 Cogni.Q vegicaps, subject S12 (169 lb), read-out: Terminal t1/2, h (converted)): 15.7 h
Tmax (oral, 4 Cogni.Q vegicaps, subject S12 (169 lb), read-out: Tmax): 2 h
AUC(0-t) (oral, 4 Cogni.Q vegicaps, subject S13 (192 lb), read-out: AUC0-48h): 13.5 nmol·h/L
Cmax (oral, 4 Cogni.Q vegicaps, subject S13 (192 lb), read-out: Cmax): 1.3 nM
half-life (oral, 4 Cogni.Q vegicaps, subject S13 (192 lb), read-out: Terminal t1/2, h (converted)): 25.8 h
Tmax (oral, 4 Cogni.Q vegicaps, subject S13 (192 lb), read-out: Tmax): 0.5 h
AUC(0-t) (oral, 4 Cogni.Q vegicaps, subject S14 (200 lb), read-out: AUC0-48h): 21.5 nmol·h/L
Cmax (oral, 4 Cogni.Q vegicaps, subject S14 (200 lb), read-out: Cmax): 8.6 nM
half-life (oral, 4 Cogni.Q vegicaps, subject S14 (200 lb), read-out: Terminal t1/2, h (converted)): 4.5 h
Tmax (oral, 4 Cogni.Q vegicaps, subject S14 (200 lb), read-out: Tmax): 1 h
AUC(0-t) (oral, 4 Cogni.Q vegicaps, subject S15 (177 lb), read-out: AUC0-48h): 23.8 nmol·h/L
Cmax (oral, 4 Cogni.Q vegicaps, subject S15 (177 lb), read-out: Cmax): 16.8 nM
half-life (oral, 4 Cogni.Q vegicaps, subject S15 (177 lb), read-out: Terminal t1/2, h (converted)): 26.5 h
Tmax (oral, 4 Cogni.Q vegicaps, subject S15 (177 lb), read-out: Tmax): 1 h
Tmax (oral, 4 Cogni.Q vegicaps, subject S16 (175 lb), read-out: Tmax): 3 h
AUC(0-t) (oral, 4 Cogni.Q vegicaps, subject S17 (147 lb), read-out: AUC0-48h): 53.9 nmol·h/L
Cmax (oral, 4 Cogni.Q vegicaps, subject S17 (147 lb), read-out: Cmax): 9.8 nM
half-life (oral, 4 Cogni.Q vegicaps, subject S17 (147 lb), read-out: Terminal t1/2, h (converted)): 22.7 h
Tmax (oral, 4 Cogni.Q vegicaps, subject S17 (147 lb), read-out: Tmax): 2 h
half-life (oral, 4 Cogni.Q vegicaps, subject S18 (180 lb), outlier, excluded from means, read-out: Terminal t1/2, h (converted)): 138 h
AUC(0-t) (oral, 4 Cogni.Q vegicaps, subject S18 (180 lb), read-out: AUC0-48h): 25.8 nmol·h/L
Cmax (oral, 4 Cogni.Q vegicaps, subject S18 (180 lb), read-out: Cmax): 1.7 nM
Tmax (oral, 4 Cogni.Q vegicaps, subject S18 (180 lb), read-out: Tmax): 4 h
AUC(0-t) (oral, 4 Cogni.Q vegicaps, subject S19 (130 lb), read-out: AUC0-48h): 35.7 nmol·h/L
Cmax (oral, 4 Cogni.Q vegicaps, subject S19 (130 lb), read-out: Cmax): 1.7 nM
half-life (oral, 4 Cogni.Q vegicaps, subject S19 (130 lb), read-out: Terminal t1/2, h (converted)): 8.5 h
Tmax (oral, 4 Cogni.Q vegicaps, subject S19 (130 lb), read-out: Tmax): 3 h
half-life (oral, subject S16 (175 lb), outlier, excluded from means, read-out: Terminal t1/2, h (converted)): 9.4 h
AUC(0-t) (oral, subject S16 (175 lb), read-out: AUC0-48h): 22.2 nmol·h/L
Cmax (oral, subject S16 (175 lb), read-out: Cmax): 2.8 nM
AUC(0-t) (oral, subject S20 (200 lb), read-out: AUC0-48h): 19.1 nmol·h/L
Cmax (oral, subject S20 (200 lb), read-out: Cmax): 1.3 nM
half-life (oral, subject S20 (200 lb), read-out: Terminal t1/2, h (converted)): 18.4 h
Tmax (oral, subject S20 (200 lb), read-out: Tmax): 2 h
conversion of D/DA to DOH (humans, from plasma AUC0–48h values): > 98%
AUC(0-t) (male, oral, 4 Cogni.Q vegicaps, Men n=10 (S1 Table), read-out: AUC0-48h, Mean): 28.5 nmol·h/L
Cmax (male, oral, 4 Cogni.Q vegicaps, Men n=10 (S1 Table), read-out: Cmax, nM, Mean): 5.22 nM
Tmax (male, oral, 4 Cogni.Q vegicaps, Men n=10 (S1 Table), read-out: Tmax, h, Mean): 1.7 h
half-life (male, oral, Men, outliers excluded (S1 Table), read-out: Terminal t1/2, h, Mean (converted)): 17.7 h
AUC(0-t) (male, po, Men N = 10, single oral dose Cogni.Q, read-out: AUC0–48h, h.nmol/L Mean (SD)): 28.5 nmol·h/L
Cmax (male, po, Men N = 10, single oral dose Cogni.Q, read-out: Cmax, nmol/L, Mean (SD)): 5.2 nM
Tmax (male, po, Men N = 10, single oral dose Cogni.Q, read-out: Tmax, h, Mean (SD)): 1.7 h
half-life (male, po, Men, outlier subjects excluded, single oral dose Cogni.Q, read-out: T1/2, h, terminal Mean (SD) (converted)): 17.7 h
